Measurements taken from US20240325312A1, “Composition comprising cannabidiol and hydroxychloroquine in a fixed dose combination capsule” (priority 2021, published 2024).

Legend:
[1] = system: Lewis rats; assay: Collagen-induced arthritis; type: in vivo; conditions: Day 30
[2] = system: human peripheral blood mononuclear cells (PBMCs); assay: LPS-stimulated cytokine release from human PBMCs, checkerboard, Luminex; type: cell-based
Method: The anti-inflammatory activity the combination of CBD and hydroxychloroquine was assessed by determining cytokine release from human peripheral blood mononuclear cells (PBMCs) stimulated with bacterial lipopolysaccharide (LPS) using a Luminex based assay. A 96-well microtitre plate-based checkerboard assay with seven concentrations (including the no drug control) of CBD and hydroxychloroquine were assessed in combination was used to determine the drug-drug interaction. Briefly, frozen PMBCs from two independent donors were thawed, diluted in culture medium, seeded into 96-well microtitre plates and incubated at 37° C., 5% CO2 for 1 hour prior to the addition of test compounds. After the addition of the test compounds the cells were returned to the incubator for 1 hour, after which LPS was added to the wells. Plates were incubated at 37° C., 5% CO2 for 24 hours. After 24 hours, cell culture supernatants were removed and analysed for cytokine levels using Luminex methodology according to manufacturers' instructions. All values had the vehicle background subtracted prior to further analysis. Three plates were set up in parallel using the PBMCs from the same donor. Inhibition of cytokine release was determined relative to the no treatment control (i.e., that was stimulated with LPS) and averaged across the three replicates. A cytotoxicity assay using AlmarBlue with the identical plate set up was performed in parallel.
(§1) Drug synergy was determined using the Bliss Independence method where the predicted effect of the drug combination is calculated using the equation: […]

[3] = system: Lewis rats; assay: Collagen-induced arthritis; type: in vivo; parameters: key to Relative reduction in pannus score / Relative reduction in total histology score / Reduction in pannus score / Reduction in total histology score / Reduction in IL-1B / Reduction in IL-6 / Reduction in clinical score: fractional reduction vs vehicle control, sham baseline subtracted
Method: Female Lewis rats were challenged with porcine type-II collagen with Freund's adjuvant on Day 1 (0.2 mg/0.2 mL/rat) by subcutaneous injection at the base of the tail to induce arthritis. A booster injection at 0.1 mg/0.1 mL/rat) was administered on Day 7. On Day 16, rats were allocated into groups of six based on hind paw volume, with animals allocated into groups to provide a similar distribution of hind paw volumes.
Vehicle and active agents (i.e., CBD and hydroxychloroquine) alone or in combination were administered intraperitoneally (IP) once a day starting from Day 17 to Day 30, i.e., for a total of 14 consecutive days.
Disease was assessed by measuring hind paw volume with plethysmometer and using a qualitative severity score system as outlined in Table 16 on Day 1, 7, 10, 14, 16, 18, 20, 22, 24, 26, 28 and 30.
Post-termination on Day 30, blood was collected from all rats and analysed for levels of the inflammatory cytokines […], IL-6 and TNF-α by ELISA. Both hind paws were harvested, weighed and formalin-fixed for histopathology. Tissue was assessed to evaluate cartilage and bone destruction by pannus formation and mononuclear cell infiltration in synovial tissues according to the scoring matrices set out in Tables 17 and 18. A total histology score, being the sum of the pannus formation and mononuclear cell infiltration score, was also calculated.
For synergy analysis, data were baseline subtracted using sham treated […] (i.e., no collagen injection), before normalizing the values relative to vehicle control. Synergy was calculated using the statistical methods described elsewhere herein.

[4] = system: C57BL/6 mice; assay: Lipopolysaccharide (LPS)-induced sepsis, serum cytokines; type: in vivo
Method: Male C57BL/6 mice weighing 10-20 g were used. Vehicle and active agents (i.e., CBD and hydroxychloroquine) alone or in combination were administered intraperitoneally (IP) or orally at 1 hour before LPS (100 μg/100 μL/mouse) injected intravenously (IV). At 2 hours after LPS injection, blood was collected from all mice by cardiac puncture, sera processed and assayed for biomarkers using either the Th17-plex for IL-1β, IL-2, IL-10, IL-12 (p70), IFN-γ and TNF-α by Luminex, plus IL-6 and D-dimer by ELISA, or the 23-plex for IL-1α, IL-1β, IL-2, IL-3, IL-4, IL-5, IL-6, IL-9, IL-10, IL-12(p40), IL-12(p70), IL-13, IL-17A, Eotaxin, G-CSF, GM-CSF, IFN-γ, KC, MCP-1(MCAF), MIP-1α, […], RANTES, and TNF-α by Luminex, plus IL-6 by ELISA. ANOVA followed by Dunnett's test was applied for comparison between vehicle and treatment groups. p<0.05 is considered significant.
For synergy analysis, data were baseline subtracted using the cytokine levels of sham treated mice (i.e., no LPS injection), before normalizing the values for each cytokine relative to maximum values across the groups. The normalized values were used to calculate the relative inhibition where a value of 1 represents complete inhibition and a value of 0 represents no inhibition. Synergy was calculated using the statistical methods described elsewhere herein.
as §1

[5] = system: BALB/c mice; assay: TNBS-induced colitis; type: in vivo; conditions: H&E
Excerpt: Male BALB/c were used as an in vivo model of colitis, induced by intracolonic administration of 2,4,6-trinitrobenzene sulfonic acid (TNBS) in 50% ethanol, as previously described by Antoniou et al. (2016, Annals of Medicine and Surgery, 11: 9-15). Briefly, the ethanol disrupts the intestinal barrier, permitting TNBS to interact with colon proteins. Interaction of TNBS with high-molecular weight proteins renders them immunogenic, leading to Th1 mediated inflammation, which is causative of symptoms include inconsistent stool formation and blood in the faeces. […]
Other endpoint measures of stool consistency score (i.e., 0—normal stools, 1, soft but still formed stools, 2—very soft stools, 3—diarrhoea), faecal occult blood score (i.e., 0—negative hemoccult, 1—positive hemoccult, 2—blood traces in stool visible, 3—rectal bleeding), colon weight, colon macroscopic damage score (a composite of adhesions, strictures, ulcers/inflammations and wall thickness) and myeloperoxidase levels in the colon tissue were also assessed. The data from each of these endpoints was baseline subtracted using the equivalent measures from sham treated mice (i.e., no TNBS) and reduction in any measure calculated as a relative reduction. Synergy was calculated using the statistical methods described elsewhere herein.

For `C=C(C)[C@@H]1CCC(C)=C[C@H]1c1c(O)cc(CCCCC)cc1O` [CBD, cannabidiol], the “Relative reduction in serum IL-1β level” value ([1]; CBD 1 mg/kg) was 0.31, the “FIE, IL-1α release” value ([2]; Donor 1, CBD 5.00 μg/mL) was 0.40 and the “FIE, IL-1β release” value ([2]; Donor 1, CBD 5.00 μg/mL) was 0.38. The “FIE, IL-6 release” value ([2]; Donor 1, CBD 5.00 μg/mL) was 0.08, the “FIE, MIP-1α release” value ([2]; Donor 1, CBD 5.00 μg/mL) was 0.12 and the “FIE, TNF-α release” value ([2]; Donor 1, CBD 5.00 μg/mL) was 0.05. The “FIE, IL-1α release” value ([2]; Donor 2, CBD 5.00 μg/mL) was 0.28, the “FIE, IL-1β release” value ([2]; Donor 2, CBD 5.00 μg/mL) was 0.13 and the “FIE, IL-6 release” value ([2]; Donor 2, CBD 5.00 μg/mL) was 0.09. The “FIE, MIP-1α release” value ([2]; Donor 2, CBD 5.00 μg/mL) was 0.00, the “FIE, TNF-α release” value ([2]; Donor 2, CBD 5.00 μg/mL) was 0.07 and the “Relative reduction in pannus score” value ([3]; Day 30, CBD 1 mg/kg) was 0.07. For the same compound, the “Relative reduction in serum IL-6 level” value ([3]; Day 30, CBD 1 mg/kg) was 0.50, the “Relative reduction in total histology score” value ([3]; Day 30, CBD 1 mg/kg) was 0.11 and the “Relative inhibition of IFN-γ release” value ([4]; CBD 10 mg/kg) was 0.00. For the same compound, the “Relative inhibition of IL-1β release” value ([4]; CBD 10 mg/kg) was 0.34, the “Relative inhibition of IL-6 release” value ([4]; CBD 10 mg/kg) was 0.14 and the “Relative inhibition of IL-12(p70) release” value ([4]; CBD 10 mg/kg) was 0.00. For the same compound, the “Relative inhibition of TNF-α release” value ([4]; CBD 10 mg/kg) was 0.00, the “Relative inhibition of IL-6 release” value ([4]; CBD 25 mg/kg) was 0.03 and the “Colon tissue histology finding (FIG. 4)” value ([5]; CBD (1 mg/kg)) was “regions of inflammatory cell infiltration in submucosal edema”.

In the case of `CCN(CCO)CCCC(C)Nc1ccnc2cc(Cl)ccc12` (stereo not drawn) [HCQ, 2-[[4-[(7-chloro-4-quinolinyl)amino]pentyl]-thylamino]ethanol], the “Relative reduction in serum IL-1β level” value ([1]; HCQ 2.5 mg/kg) is reported as 0.37, the “FIE, IL-1α release” value ([2]; Donor 1, HCQ 0.63 μg/mL) is reported as 0.03 and the “FIE, IL-1β release” value ([2]; Donor 1, HCQ 0.63 μg/mL) is reported as 0.08. For the same compound, the “FIE, IL-6 release” value ([2]; Donor 1, HCQ 0.63 μg/mL) was 0.12, the “FIE, TNF-α release” value ([2]; Donor 1, HCQ 0.63 μg/mL) was 0.00 and the “FIE, IL-1α release” value ([2]; Donor 1, HCQ 1.25 μg/mL) was 0.01. For the same compound, the “FIE, IL-1β release” value ([2]; Donor 1, HCQ 1.25 μg/mL) was 0.07, the “FIE, IL-6 release” value ([2]; Donor 1, HCQ 1.25 μg/mL) was 0.00 and the “FIE, TNF-α release” value ([2]; Donor 1, HCQ 1.25 μg/mL) was 0.08. The “FIE, IL-1α release” value ([2]; Donor 1, HCQ 2.50 μg/mL) was 0.12, the “FIE, IL-1β release” value ([2]; Donor 1, HCQ 2.50 μg/mL) was 0.08 and the “FIE, IL-6 release” value ([2]; Donor 1, HCQ 2.50 μg/mL) was 0.10. The “FIE, MIP-1α release” value ([2]; Donor 1, HCQ 2.50 μg/mL) was 0.00, the “FIE, TNF-α release” value ([2]; Donor 1, HCQ 2.50 μg/mL) was 0.05 and the “FIE, IL-1α release” value ([2]; Donor 1, HCQ 5.00 μg/mL) was 0.24. For the same compound, the “FIE, IL-1β release” value ([2]; Donor 1, HCQ 5.00 μg/mL) was 0.17, the “FIE, IL-6 release” value ([2]; Donor 1, HCQ 5.00 μg/mL) was 0.08 and the “FIE, TNF-α release” value ([2]; Donor 1, HCQ 5.00 μg/mL) was 0.02. For the same compound, the “FIE, IL-1α release” value ([2]; Donor 1, HCQ 10.00 μg/mL) was 0.50, the “FIE, IL-1β release” value ([2]; Donor 1, HCQ 10.00 μg/mL) was 0.68 and the “FIE, IL-6 release” value ([2]; Donor 1, HCQ 10.00 μg/mL) was 0.00. For the same compound, the “FIE, TNF-α release” value ([2]; Donor 1, HCQ 10.00 μg/mL) was 0.04, the “FIE, IL-1α release” value ([2]; Donor 1, HCQ 20.00 μg/mL) was 0.54 and the “FIE, IL-1β release” value ([2]; Donor 1, HCQ 20.00 μg/mL) was 0.81. The “FIE, IL-6 release” value ([2]; Donor 1, HCQ 20.00 μg/mL) was 0.12, the “FIE, MIP-1α release” value ([2]; Donor 1, HCQ 20.00 μg/mL) was 0.00 and the “FIE, TNF-α release” value ([2]; Donor 1, HCQ 20.00 μg/mL) was 0.30. The “FIE, IL-1α release” value ([2]; Donor 2, HCQ 0.63 μg/mL) was 0.07, the “FIE, IL-1β release” value ([2]; Donor 2, HCQ 0.63 μg/mL) was 0.06 and the “FIE, IL-1α release” value ([2]; Donor 2, HCQ 1.25 μg/mL) was 0.11. The “FIE, IL-1α release” value ([2]; Donor 2, HCQ 2.50 μg/mL) was 0.19, the “FIE, IL-1β release” value ([2]; Donor 2, HCQ 2.50 μg/mL) was 0.07 and the “FIE, IL-1α release” value ([2]; Donor 2, HCQ 5.00 μg/mL) was 0.49. For the same compound, the “FIE, TNF-α release” value ([2]; Donor 2, HCQ 5.00 μg/mL) was 0.02, the “FIE, IL-1α release” value ([2]; Donor 2, HCQ 10.00 μg/mL) was 0.68 and the “FIE, IL-6 release” value ([2]; Donor 2, HCQ 10.00 μg/mL) was 0.11. For the same compound, the “FIE, MIP-1α release” value ([2]; Donor 2, HCQ 10.00 μg/mL) was 0.00, the “FIE, TNF-α release” value ([2]; Donor 2, HCQ 10.00 μg/mL) was 0.18 and the “FIE, IL-1α release” value ([2]; Donor 2, HCQ 20.00 μg/mL) was 0.63. The “FIE, IL-6 release” value ([2]; Donor 2, HCQ 20.00 μg/mL) was 0.47, the “FIE, MIP-1α release” value ([2]; Donor 2, HCQ 20.00 μg/mL) was 0.00 and the “Reduction in clinical score” value ([3]; Day 24, HCQ 25 mg/kg) was 0.21. The “Reduction in paw volume” value ([3]; Day 24, HCQ 25 mg/kg) was 0.10, the “Relative reduction in pannus score” value ([3]; Day 30, HCQ 2.5 mg/kg) was 0.07 and the “Relative reduction in serum IL-6 level” value ([3]; Day 30, HCQ 2.5 mg/kg) was 0.51. For the same compound, the “Relative reduction in total histology score” value ([3]; Day 30, HCQ 2.5 mg/kg) was 0.15, the “Reduction in clinical score” value ([3]; Day 30, HCQ 25 mg/kg) was 0.26 and the “Reduction in paw volume” value ([3]; Day 30, HCQ 25 mg/kg) was 0.20. The “Reduction in mononuclear cell infiltration” value ([3]; HCQ 25 mg/kg) was 0.24, the “Reduction in pannus score” value ([3]; HCQ 25 mg/kg) was 0.28 and the “Reduction in total histology score” value ([3]; HCQ 25 mg/kg) was 0.26. For the same compound, the “Reduction in IL-1B” value ([3]; serum, HCQ 25 mg/kg) was 0.25, the “Reduction in IL-6” value ([3]; serum, HCQ 25 mg/kg) was 0.36 and the “Colon tissue histology finding (FIG. 4)” value ([5]; hydroxychloroquine (2.5 mg/kg)) was “regions of mild abnormality, cyctic dilation and aberrant crypts”.
